The nature of data set [1]: Resazurin cell viability pre-screen in DU145-TXR cells with or without PTX. The format is cell-based. The following applies: human, mean of two experiments in triplicate, read-out: Viability, 15 µM compound alone. In a few lines: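 Paclitaxel-resistant DU145-TXR cells, resazurin viability after 48 hours with 15 µM compound, alone or plus 500 nM PTX. […], averaged over two experiments (n = 3 each).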
(In general: The colour change of resazurin is a common sign of viable cells or microbes.)

The target in data set [2] is T1, P-gp (Homo sapiens, UniProt P08183).
T1 construct: The MDR, P-gp overexpressing DU145-TXR cells were maintained under positive selection pressure; endogenous in cells; host or cells: DU145-TXR (paclitaxel-resistant sub-line of DU145 human prostate cancer cells)
T1 sequence (P08183 whole entry): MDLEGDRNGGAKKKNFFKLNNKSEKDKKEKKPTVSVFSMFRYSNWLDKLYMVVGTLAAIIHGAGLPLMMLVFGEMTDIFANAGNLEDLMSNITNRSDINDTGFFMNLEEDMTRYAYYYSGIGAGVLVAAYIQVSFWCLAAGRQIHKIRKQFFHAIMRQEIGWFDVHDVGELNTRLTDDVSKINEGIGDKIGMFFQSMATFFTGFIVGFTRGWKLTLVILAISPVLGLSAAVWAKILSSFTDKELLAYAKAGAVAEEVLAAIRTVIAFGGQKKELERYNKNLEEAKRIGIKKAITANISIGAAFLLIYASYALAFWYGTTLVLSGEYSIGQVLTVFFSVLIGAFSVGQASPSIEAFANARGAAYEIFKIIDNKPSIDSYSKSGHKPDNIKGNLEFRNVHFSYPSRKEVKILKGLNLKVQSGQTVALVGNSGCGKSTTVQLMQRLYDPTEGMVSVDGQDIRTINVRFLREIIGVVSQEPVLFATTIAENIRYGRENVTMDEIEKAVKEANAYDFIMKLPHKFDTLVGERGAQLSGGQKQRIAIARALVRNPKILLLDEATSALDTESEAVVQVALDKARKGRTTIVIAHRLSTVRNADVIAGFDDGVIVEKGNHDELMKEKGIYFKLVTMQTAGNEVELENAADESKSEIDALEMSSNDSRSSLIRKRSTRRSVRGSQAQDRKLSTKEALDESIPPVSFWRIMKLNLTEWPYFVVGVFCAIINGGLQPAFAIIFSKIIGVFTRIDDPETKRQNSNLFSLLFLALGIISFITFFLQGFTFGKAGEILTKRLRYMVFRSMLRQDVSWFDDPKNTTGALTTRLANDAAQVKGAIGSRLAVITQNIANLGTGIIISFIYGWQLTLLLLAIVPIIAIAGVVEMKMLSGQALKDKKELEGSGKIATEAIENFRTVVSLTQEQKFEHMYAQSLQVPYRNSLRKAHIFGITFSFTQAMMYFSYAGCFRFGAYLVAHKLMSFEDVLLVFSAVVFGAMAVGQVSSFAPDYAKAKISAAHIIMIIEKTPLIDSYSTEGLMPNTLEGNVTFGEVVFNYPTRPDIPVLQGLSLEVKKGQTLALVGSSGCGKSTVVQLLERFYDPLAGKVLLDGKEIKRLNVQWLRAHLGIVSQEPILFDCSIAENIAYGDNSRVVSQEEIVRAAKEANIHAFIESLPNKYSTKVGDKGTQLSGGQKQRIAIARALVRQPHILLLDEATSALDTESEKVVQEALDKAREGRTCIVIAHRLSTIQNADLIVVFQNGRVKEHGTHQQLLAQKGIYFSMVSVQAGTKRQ
The data set can be described thus: LC-MS/MS intracellular accumulation assay with or without tariquidar (P-gp transport substrate test) in DU145-TXR cells. It is filed as in vitro ADME. The procedure, abridged: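 Analyte peak area normalised to internal standard and to lysate protein (BSA curve); relative accumulation compared between −/+ TQR by Student's t-test. Daunorubicin served as P-gp substrate positive control.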

The nature of data set [3]: SWISS-ADME computational analysis of chemical properties. The following applies: predicted aqueous solubility compared to that observed in the laboratory. The procedure, abridged: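 In silico prediction by the SWISS-ADME server of chemical properties and of whether each molecule is a P-gp transport substrate, based on its chemical and structural characteristics.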
The mark [4] stands for this setting: DU145-TXR, 5 µM compound, 2.5 h, with 500 nM tariquidar, mean ± SD, triplicate.
The mark [5] stands for this setting: DU145-TXR, 5 µM compound, 2.5 h, without tariquidar, mean ± SD, triplicate.

By viability is commonly meant a read-out of living cells in per cent, often relative to untreated cells.

Take `O=C(c1cc2ccccc2[nH]1)N1CCN(S(=O)(=O)c2cccc3nonc23)CC1` [Compound 66, O=C(N1CCN(CC1)S(=O)(=O)c1cccc2nonc12)c1cc2ccccc2[nH]1]: in data set [1], the viability at 48 h, 15 µM turned out to be 98.3%. Also, in data set [2] (setting [4]), the “Intracellular accumulation (normalized ratio of compound to internal standard), Trial 1, + TQR” value was 0.833 ± 0.124; the “Intracellular accumulation (normalized ratio of compound to internal standard), Trial 2, + TQR” value was determined as 0.036 ± 0.005; the “Intracellular accumulation (normalized ratio of compound to internal standard), Trial 3, + TQR” value worked out at 0.140 ± 0.029. Besides, in data set [2] (setting [5]), the “Intracellular accumulation (normalized ratio of compound to internal standard), Trial 1, - TQR” value was 0.747 ± 0.096; the “Intracellular accumulation (normalized ratio of compound to internal standard), Trial 2, - TQR” value is reported as 0.040 ± 0.001; the “Intracellular accumulation (normalized ratio of compound to internal standard), Trial 3, - TQR” value was found to be 0.170 ± 0.039. Moreover, in data set [2] (Student's T test of the mean), the “P (- TQR vs + TQR), Trial 1” value amounted to 0.4; the “P (- TQR vs + TQR), Trial 2” value was 0.2; the “P (- TQR vs + TQR), Trial 3” value is 0.3. Further, the “Correct Water Solubility Prediction?” value in data set [3] is on record as “Yes”.
For `COc1ccc(OC)c(NC(=O)c2nnn(-c3ccc4noc(-c5ccccc5)c4c3)c2C)c1` [Compound 71, COc1ccc(OC)c(NC(=O)c2nnn(c2C)-c2ccc3noc(-c4ccccc4)c3c2)c1], in data set [1], the viability at 48 h, 15 µM came to 93%. In data set [2] (setting [4]), the “Intracellular accumulation (normalized ratio of compound to internal standard), Trial 1, + TQR” value turned out to be 0.067 ± 0.005 and the “Intracellular accumulation (normalized ratio of compound to internal standard), Trial 2, + TQR” value turned out to be 0.091 ± 0.043. Also, in data set [2] (setting [5]), the “Intracellular accumulation (normalized ratio of compound to internal standard), Trial 1, - TQR” value amounted to 0.085 ± 0.013 and the “Intracellular accumulation (normalized ratio of compound to internal standard), Trial 2, - TQR” value is reported as 0.071 ± 0.009. In data set [2] (Student's T test of the mean), the “P (- TQR vs + TQR), Trial 1” value amounted to 0.09 and the “P (- TQR vs + TQR), Trial 2” value was found to be 0.5. Also, the “Correct Water Solubility Prediction?” value in data set [3] was “Yes”.

(Values after article PMC12349723, “Computationally accelerated identification of P-glycoprotein inhibitors” (PLOS One, 2025).)
